Measured values: ChEMBL document CHEMBL1671626, “In vitro profiling of ceftaroline against a collection of recent bacterial clinical isolates from across the United States” (2008)

Tests used:
Type in all cases: functional
Enterococcus faecalis [1] = assay: Antibacterial activity against vancomycin-susceptible Enterococcus faecalis by CLSI M7-A7 broth microdilution method
Streptococcus agalactiae [2] = assay: Antibacterial activity against erythromycin-susceptible Streptococcus agalactiae by CLSI M7-A7 broth microdilution method
Enterobacter cloacae [3] = assay: Antibacterial activity against ceftazidime-susceptible Enterobacter cloacae by CLSI M7-A7 broth microdilution method
Escherichia coli [4] = assay: Antibacterial activity against ceftazidime-susceptible Escherichia coli by CLSI M7-A7 broth microdilution method
Morganella morganii = assay: Antibacterial activity against ceftazidime-susceptible Morganella morganii by CLSI M7-A7 broth microdilution method
Enterococcus faecium = assay: Antibacterial activity against vancomycin-resistant Enterococcus faecium by CLSI M7-A7 broth microdilution method
Haemophilus influenzae [5] = assay: Antibacterial activity against beta lactamase-positive Haemophilus influenzae by CLSI M7-A7 broth microdilution method
Staphylococcus aureus [6] = assay: Antibacterial activity against coagulase-negative and oxacillin-resistant Staphylococcus aureus by CLSI M7-A7 broth microdilution method
Providencia sp. = assay: Antibacterial activity against ceftazidime-susceptible Providencia sp. by CLSI M7-A7 broth microdilution method
Streptococcus pneumoniae [7] = assay: Antibacterial activity against penicillin-resistant Streptococcus pneumoniae by CLSI M7-A7 broth microdilution method
Streptococcus viridans [8] = assay: Antibacterial activity against penicillin-susceptible Streptococcus viridans by CLSI M7-A7 broth microdilution method
Staphylococcus aureus [9] = assay: Antibacterial activity against methicillin-susceptible Staphylococcus aureus by CLSI M7-A7 broth microdilution method
Citrobacter freundii [10] = assay: Antibacterial activity against ceftazidime-nonsusceptible Citrobacter freundii by CLSI M7-A7 broth microdilution method
Haemophilus influenzae [11] = assay: Antibacterial activity against beta lactamase-negative Haemophilus influenzae by CLSI M7-A7 broth microdilution method
Acinetobacter [12] = assay: Antibacterial activity against imipenem-susceptible Acinetobacter by CLSI M7-A7 broth microdilution method
Klebsiella pneumoniae [13] = assay: Antibacterial activity against ceftazidime-susceptible Klebsiella pneumoniae by CLSI M7-A7 broth microdilution method
Streptococcus viridans [14] = assay: Antibacterial activity against penicillin-nonsusceptible Streptococcus viridans by CLSI M7-A7 broth microdilution method
Streptococcus pneumoniae [15] = assay: Antibacterial activity against penicillin-susceptible Streptococcus pneumoniae by CLSI M7-A7 broth microdilution method
Citrobacter freundii [16] = assay: Antibacterial activity against ceftazidime-susceptible Citrobacter freundii by CLSI M7-A7 broth microdilution method
Acinetobacter [17] = assay: Antibacterial activity against multidrug-resistant Acinetobacter by CLSI M7-A7 broth microdilution method
Streptococcus pyogenes [18] = assay: Antibacterial activity against erythromycin-susceptible Streptococcus pyogenes by CLSI M7-A7 broth microdilution method
Staphylococcus aureus [19] = assay: Antibacterial activity against methicillin-resistant Staphylococcus aureus by CLSI M7-A7 broth microdilution method
Klebsiella pneumoniae [20] = assay: Antibacterial activity against ceftazidime-nonsusceptible Klebsiella pneumoniae by CLSI M7-A7 broth microdilution method
Streptococcus agalactiae [21] = assay: Antibacterial activity against erythromycin-nonsusceptible Streptococcus agalactiae by CLSI M7-A7 broth microdilution method
Staphylococcus aureus [22] = assay: Antibacterial activity against coagulase-negative and oxacillin-susceptible Staphylococcus aureus by CLSI M7-A7 broth microdilution method
Enterobacteriaceae [23] = assay: Antibacterial activity against ceftazidime-susceptible Enterobacteriaceae by CLSI M7-A7 broth microdilution method
Enterobacteriaceae [24] = assay: Antibacterial activity against ceftazidime-nonsusceptible Enterobacteriaceae by CLSI M7-A7 broth microdilution method
Pasteurella multocida = assay: Antibacterial activity against Pasteurella multocida by CLSI M7-A7 broth microdilution method
Enterococcus faecalis [25] = assay: Antibacterial activity against vancomycin-resistant Enterococcus faecalis by CLSI M7-A7 broth microdilution method
Proteus mirabilis = assay: Antibacterial activity against ceftazidime-susceptible Proteus mirabilis by CLSI M7-A7 broth microdilution method
Serratia marcescens = assay: Antibacterial activity against ceftazidime-susceptible Serratia marcescens by CLSI M7-A7 broth microdilution method
Enterobacter cloacae [26] = assay: Antibacterial activity against ceftazidime-nonsusceptible Enterobacter cloacae by CLSI M7-A7 broth microdilution method
Moraxella catarrhalis = assay: Antibacterial activity against beta lactamase-positive Moraxella catarrhalis by CLSI M7-A7 broth microdilution method
Streptococcus pyogenes [27] = assay: Antibacterial activity against erythromycin-nonsusceptible Streptococcus pyogenes by CLSI M7-A7 broth microdilution method
Escherichia coli [28] = assay: Antibacterial activity against ceftazidime-nonsusceptible Escherichia coli by CLSI M7-A7 broth microdilution method

CCO/N=C(\C(=O)N[C@@H]1C(=O)N2C(C(=O)[O-])=C(Sc3nc(-c4cc[n+](C)cc4)cs3)CS[C@H]12)c1nsc(NP(=O)(O)O)n1 [CEFTAROLINE FOSAMIL]
4 µg/mL: MIC90 (Enterococcus faecalis [1]) | MIC50 (Acinetobacter [12]) | MIC50 (Enterococcus faecalis [25]) | MIC90 (Enterococcus faecalis [25]) | MIC90 (Proteus mirabilis)
1 µg/mL: MIC90 (Enterobacter cloacae [3]) | MIC50 (Providencia sp.) | MIC90 (Staphylococcus aureus [19]) | MIC90 (Enterobacteriaceae [23])
≤ 0.008 µg/mL: MIC (Streptococcus viridans [8]) | MIC50 (Streptococcus viridans [8]) | MIC (Haemophilus influenzae [11]) | MIC50 (Haemophilus influenzae [11]) | MIC (Streptococcus pneumoniae [15]) | MIC50 (Streptococcus pneumoniae [15]) | MIC (Streptococcus pyogenes [18]) | MIC50 (Streptococcus pyogenes [18]) | MIC90 (Streptococcus pyogenes [18]) | MIC (Pasteurella multocida) | MIC50 (Pasteurella multocida) | MIC (Streptococcus pyogenes [27]) | MIC50 (Streptococcus pyogenes [27])
0.12 µg/mL: MIC50 (Enterobacter cloacae [3]) | MIC50 (Streptococcus pneumoniae [7]) | MIC90 (Streptococcus pneumoniae [7]) | MIC50 (Streptococcus viridans [14]) | MIC50 (Citrobacter freundii [16]) | MIC90 (Staphylococcus aureus [22])
16 µg/mL: MIC90 (Morganella morganii) | MIC90 (Serratia marcescens)
> 16 µg/mL: MIC50 (Enterococcus faecium) | MIC90 (Enterococcus faecium) | MIC90 (Providencia sp.) | MIC50 (Citrobacter freundii [10]) | MIC90 (Citrobacter freundii [10]) | MIC90 (Acinetobacter [12]) | MIC50 (Acinetobacter [17]) | MIC50 (Klebsiella pneumoniae [20]) | MIC90 (Klebsiella pneumoniae [20]) | MIC50 (Enterobacteriaceae [24]) | MIC90 (Enterobacteriaceae [24]) | MIC50 (Enterobacter cloacae [26]) | MIC90 (Enterobacter cloacae [26]) | MIC50 (Escherichia coli [28]) | MIC90 (Escherichia coli [28])
0.25 µg/mL: MIC50 (Staphylococcus aureus [9]) | MIC90 (Staphylococcus aureus [9]) | MIC90 (Klebsiella pneumoniae [13]) | MIC90 (Citrobacter freundii [16]) | MIC90 (Moraxella catarrhalis)
0.06 µg/mL: MIC50 (Escherichia coli [4]) | MIC50 (Morganella morganii) | MIC50 (Klebsiella pneumoniae [13]) | MIC50 (Staphylococcus aureus [22]) | MIC50 (Enterobacteriaceae [23]) | MIC90 (Pasteurella multocida) | MIC50 (Proteus mirabilis) | MIC50 (Moraxella catarrhalis)
0.5 µg/mL: MIC90 (Escherichia coli [4]) | MIC50 (Staphylococcus aureus [6]) | MIC90 (Staphylococcus aureus [6]) | MIC90 (Streptococcus viridans [14]) | MIC50 (Staphylococcus aureus [19]) | MIC50 (Serratia marcescens)
0.03 µg/mL: MIC90 (Haemophilus influenzae [5]) | MIC90 (Streptococcus viridans [8])
2 µg/mL: MIC50 (Enterococcus faecalis [1])
0.015 µg/mL: MIC50 (Streptococcus agalactiae [2]) | MIC90 (Streptococcus agalactiae [2]) | MIC50 (Haemophilus influenzae [5]) | MIC90 (Haemophilus influenzae [11]) | MIC90 (Streptococcus pneumoniae [15]) | MIC50 (Streptococcus agalactiae [21]) | MIC90 (Streptococcus agalactiae [21]) | MIC90 (Streptococcus pyogenes [27])
